{"source": "paper PMC8546421", "about": "“Molecular modelling of the FOXO4-TP53 interaction to design senolytic peptides for the elimination of senescent cancer cells” (EBioMedicine, 2021)", "key": {"[1]": {"system": "senescent cells in the liver", "assay": "Systemic delivery to aged mice, liver SA-β-gal", "format": "in vivo, mouse", "settings": "aged mice (82 weeks), 3 mg ES2 via tail vein weekly for three weeks, n=5, p=0.03", "protocol": "Senescent and dividing cells or tissue sections were fixed with 4% formaldehyde. The cells were washed with PBS twice before staining with X-gal solution [1 mg/mL 5-bromo-4-chloro-3inolyl-β-D-galactoside (Boehringer Manneheim #745-740) in N,N-dimethylformamide, 5 mM potassium ferricyanide crystalline (#P-8131), 5 mM potassium […] (#P-3289), 2 mM magnesium chloride, and 1x PBS, pH 6.0. Cells or tissue sections were incubated at 37°C for 24 hours. After staining, cells were washed with PBS before being counted and imaged on the Leica Dmi8 microscope.\nMice were aged between 3-8 months and 20-30 g in weight and were housed in specific pathogen free cages. Animals were randomly distributed among treatment groups by assigning mice within the same cage to different treatment regimens. To minimise confounders, mouse treatment order was randomised within each cage. Male and female mice were distributed between all treatment groups since the chemicals used were directly injected and are not metabolized. Researchers were not blinded to the group allocation, but all attempts were made to analyse the data without knowing treatment conditions. […] Mice were then monitored daily and allowed to age until a humane endpoint was reached according to our IACUC protocol, which in this case was tumours of 2 cm in size. […]"}, "A375 cells": {"system": "A375 cells", "assay": "Annexin V live cell stain, kinetics of apoptosis", "format": "cell-based, human", "settings": "8 µM ES2, A375 cells, linear regression comparison p<0.001"}}, "note": "Where no end group is shown, it is not given here.", "data": [{"sequence": "PRKGGRRRRAWGRRRRRRRRRRRRRRAPRKRLTLA [ES2]", "values": [{"measurement": "number of senescent cells in the liver (SA-β-gal activity)", "setting": "[1]", "value": "reduced the number of senescent cells in the liver by half"}, {"measurement": "rate of apoptosis, senescent compared to dividing cells", "setting": "A375 cells", "value": "four-fold"}]}]}
